Article PMC12833730, “Discovery of a First‐in‐Class Covalent Allosteric SHP1 Inhibitor with Immunotherapeutic Activity” (Angewandte Chemie (International Ed. in English), 2025)
“Also recorded” adds a separate entry of the source.

Experiments:
B16-F10 = experiment: CCK8 cytotoxicity; assay type: cell-based; details: up to 50 µM, 24 hours
Method: (§1) Figure S3. Cancerous cells (MC38, EO771, and B16-F10), non-cancerous cells (HEK293), and immune cells (Jurkat and Raw264.7) were treated with M029 at different doses for 24 hours, and the cell viability was determined by the CCK8 experiments using DMSO-treated cells as a control. […] Results were analyzed using GraphPad Prism 10.4.2. The figure is plotted as average ± standard error of the mean (SEM).
(§2) Cytotoxicity: HEK293, MC38, EO771, RAW264.7 cells in DMEM media [supplemented with 10% (v/v) fetal bovine serum and penicillin (100 units/ml)/streptomycin (100 μg/ml)] and Jurkat T cells in RPMI 1640 media [supplemented with 10% (v/v) fetal bovine serum and penicillin (50 units/ml)/streptomycin (50 μg/ml)] were dispensed in clear flat-bottom 96-well plates at the density of 5,000 cells per well and culture for 16 hours under 37 °C with 5% CO2. M029 of different concentrations or DMSO was added to each well, followed by additional incubation for 24 hours. All wells were then treated with 5 µL of CCK8 reagent (Abcam, #ab228554) followed by 4 hours of incubation. OD460 of the reaction mixture was detected using a Spectra MAX340 microplate spectrophotometer (Molecular Devices) and was used to determine the percent growth inhibition of M029 on each cell line. Data were fitted using Prism GraphPad 10.1.1.

Jurkat T cells = experiment: CCK8 cytotoxicity; assay type: cell-based; details: up to 50 µM, 24 hours
Method: as §1, §2

EO771 = experiment: CCK8 cytotoxicity; assay type: cell-based; details: up to 50 µM, 24 hours
Method: as §1, §2

HEK293 = experiment: CCK8 cytotoxicity; assay type: cell-based; details: up to 50 µM, 24 hours
Method: as §1, §2

MC38 = experiment: CCK8 cytotoxicity; assay type: cell-based; details: up to 50 µM, 24 hours
Method: as §1, §2

Raw264.7 cells = experiment: CCK8 cytotoxicity; assay type: cell-based; details: up to 50 µM, 24 hours
Method: as §1, §2

[1] = test system: whole proteome in Jurkat T cells; experiment: Chemoproteomic maleimide-biotin competition; assay type: cell-based, human
Method: To further define the selectivity of M029 for SHP1 and assess its cellular target engagement, a chemoproteomic investigation was performed to identify Cys residues protected by M029 from biotin‐tagged maleimide from the whole proteome in Jurkat T cells.^[ [79] ^] Since proteins labeled by M029 will be prevented from capture by the maleimide‐biotin probe, M029‐modified proteins can be readily identified by determining the ratio between the maleimide‐biotin‐bound proteins in the absence and presence of M029. […] The modest observed off‐target reactivity of M029 is not uncommon for targeted covalent inhibitors, including those FDA‐approved covalent drugs targeting EGFR (Osimertinib),^[ [80], [81] ^] BTK (Ibrutinib),^[ [82] ^] and KRAS (Sotorasib),^[ [83] ^] which also modify other proteins in addition to the intended targets. […]
For chemical proteomics studies, Cells were placed in 1 mL urea lysis buffer (100 mM Tris-HCl, pH 8, 8 M urea) and sonicated on ice for three 1-min rounds at 15% amplitude. […] Total protein concentrations were determined using the bicinchoninic acid (BCA) protein assay kit (Thermo Scientific Pierce, Rockford, IL). […]
Mal-biotin labeled peptides were diluted in 1 mL of PBS with 50 μL of High-Capacity NeutrAvidin slurry (Thermo Scientific). […] The peptide samples were analyzed by using an Evosep One LC coupled to a timsTOF HT mass spectrometer (Bruker). […]

Compound: N#Cc1ccsc1NS(=O)(=O)c1ccc(NC(=O)CCl)cc1 [M029, 2-Chloro-N-(4-(N-(3-cyanothiophen-2-yl)sulfamoyl)phenyl)acetamide]
- cytotoxicity, B16-F10 (B16-F10): No significant toxicity; also recorded: no significant cytotoxicity
- cytotoxicity, Jurkat T cells (Jurkat T cells): No significant toxicity; also recorded: no significant cytotoxicity
- cytotoxicity, EO771 (EO771): No significant toxicity; also recorded: no significant cytotoxicity
- cytotoxicity, HEK293 (HEK293): No significant toxicity; also recorded: no significant cytotoxicity
- cytotoxicity, MC38 (MC38): No significant toxicity; also recorded: no significant cytotoxicity
- cytotoxicity, Raw264.7 (Raw264.7 cells): No significant toxicity; also recorded: no significant cytotoxicity
- rank of SHP1 (Cys480) among M029-labeled proteins ([1]; >2700 peptide fragments identified): second most
- number of proteins significantly blocked from maleimide modification ([1]; cutoff 10-fold, p 0.05): five
